Assay results taken from the supplement of paper PMC4862054.

Tests used:
Test in all cases: normalised response (% of control), CellTox Green; higher = less cell death (100 = DMSO, 0 = benzethonium chloride kill control)
Settings in all cases: incubation time: 72 h
HCC1599 = system: HCC1599
In short: (§1)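 Each entry is the normalised signal at a single concentration within a series. The series comprised 5 concentrations in 10-fold steps over a compound-specific 10,000-fold range, placed in 384-well plates into which breast cancer cell lines were seeded as 20 µl suspension and incubated 72 h. CellTox Green (485/520 nm) fluorescence and then CellTiter-Glo luminescence were read, with signals normalised per plate to 0.1 % DMSO (100) and a positive kill control (0).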

CAL-148 = system: CAL-148
In short: as §1

MDA-MB-231 = system: MDA-MB-231
In short: as §1

CAL-120 = system: CAL-120
In short: as §1

MDA-MB-436 = system: MDA-MB-436
In short: as §1

BT-549 = system: BT-549
In short: as §1

MDA-MB-453 = system: MDA-MB-453
In short: as §1

HDQ-P1 = system: HDQ-P1
In short: as §1

BT-474 = system: BT-474
In short: as §1

HCC1143 = system: HCC1143
In short: as §1

MDA-MB-468 = system: MDA-MB-468
In short: as §1

CAL-51 = system: CAL-51
In short: as §1

Hs578T = system: Hs578T
In short: as §1

CAL-85-1 = system: CAL-85-1
In short: as §1

MFM-223 = system: MFM-223
In short: as §1

DU-4475 = system: DU-4475
In short: as §1

HCC1937 = system: HCC1937
In short: as §1

MCF-10A = system: MCF-10A
In short: as §1

SMILES: O=P1(NCCCl)OCCCN1CCCl (stereo not drawn) [Ifosfamide] (10000 nM)
- normalised response (HCC1599): 93.6%
- normalised response (CAL-148): 95.8%
- normalised response (MDA-MB-231): 89%
- normalised response (CAL-120): 100%
- normalised response (MDA-MB-436): 82.4%
- normalised response (BT-549): 77.5%
- normalised response (MDA-MB-453): 104%
- normalised response (HDQ-P1): 101%
- normalised response (BT-474): 70.9%
- normalised response (HCC1143): 99.9%
- normalised response (MDA-MB-468): 193%
- normalised response (CAL-51): 93.9%
- normalised response (Hs578T): 54.2%
- normalised response (CAL-85-1): 133%
- normalised response (MFM-223): 95.7%
- normalised response (DU-4475): 94.9%

SMILES: CC1(C)NC(=O)N(c2ccc([N+](=O)[O-])c(C(F)(F)F)c2)C1=O [Nilutamide] (10000 nM)
- normalised response (HCC1599): 102%
- normalised response (CAL-148): 101%
- normalised response (MDA-MB-231): 105%
- normalised response (CAL-120): 101%
- normalised response (MDA-MB-436): 102%
- normalised response (BT-549): 107%
- normalised response (MDA-MB-453): 97.3%
- normalised response (HDQ-P1): 98.1%
- normalised response (HCC1937): 92.1%
- normalised response (BT-474): 98.8%
- normalised response (MDA-MB-468): 115%
- normalised response (MCF-10A): 79.5%
- normalised response (CAL-51): 102%
- normalised response (Hs578T): 102%
- normalised response (CAL-85-1): 83.5%
- normalised response (MFM-223): 96.2%
- normalised response (DU-4475): 104%

SMILES: Cc1ccc(C(=O)Nc2ccc(CN3CCN(C)CC3)c(C(F)(F)F)c2)cc1C#Cc1cnc2cccnn12 [Ponatinib] (1000 nM)
- normalised response (HCC1599): 103%
- normalised response (CAL-148): 60.9%
- normalised response (MDA-MB-231): -32.9%
- normalised response (CAL-120): 59.5%
- normalised response (MDA-MB-436): 95.6%
- normalised response (BT-549): 59.4%
- normalised response (MDA-MB-453): 103%
- normalised response (HDQ-P1): 76.6%
- normalised response (HCC1937): 15%
- normalised response (BT-474): 92.3%
- normalised response (HCC1143): 71.3%
- normalised response (MDA-MB-468): 164%
- normalised response (MCF-10A): 97%
- normalised response (CAL-51): 57.4%
- normalised response (Hs578T): 24.4%
- normalised response (CAL-85-1): 60.8%
- normalised response (MFM-223): 96.4%
- normalised response (DU-4475): 93.3%

SMILES: Cn1c(Nc2ccc(C(F)(F)F)cc2)nc2cc(Oc3ccnc(-c4ncc(C(F)(F)F)[nH]4)c3)ccc21 [RAF265] (1000 nM)
- normalised response (HCC1599): 110%
- normalised response (CAL-148): 80.4%
- normalised response (MDA-MB-231): 113%
- normalised response (CAL-120): 100%
- normalised response (MDA-MB-436): 107%
- normalised response (BT-549): 81.7%
- normalised response (MDA-MB-453): 102%
- normalised response (HDQ-P1): 109%
- normalised response (HCC1937): 82%
- normalised response (BT-474): 98.1%
- normalised response (HCC1143): 122%
- normalised response (MDA-MB-468): 145%
- normalised response (MCF-10A): 75.4%
- normalised response (CAL-51): 96.3%
- normalised response (Hs578T): 118%
- normalised response (CAL-85-1): 55.5%
- normalised response (MFM-223): 21.6%
- normalised response (DU-4475): 99.4%

SMILES: CNCc1ccc(-c2[nH]c3cc(F)cc4c3c2CCNC4=O)cc1 [Rucaparib] (10000 nM)
- normalised response (HCC1599): 93.7%
- normalised response (CAL-148): 88.9%
- normalised response (MDA-MB-231): 98.5%
- normalised response (CAL-120): 98.4%
- normalised response (MDA-MB-436): 75.7%
- normalised response (BT-549): 112%
- normalised response (MDA-MB-453): 101%
- normalised response (HDQ-P1): 105%
- normalised response (HCC1937): 84.9%
- normalised response (BT-474): 96.9%
- normalised response (HCC1143): 74.6%
- normalised response (MDA-MB-468): 160%
- normalised response (MCF-10A): 83.3%
- normalised response (CAL-51): 94.4%
- normalised response (CAL-85-1): 129%
- normalised response (MFM-223): 97.1%
- normalised response (DU-4475): 97.5%

SMILES: N[C@@H](CSC(c1ccccc1)(c1ccccc1)c1ccccc1)C(=O)O [S-trityl-L-cysteine] (40000 nM)
- normalised response (HCC1599): 114%
- normalised response (CAL-148): 92.2%
- normalised response (MDA-MB-231): 122%
- normalised response (CAL-120): 105%
- normalised response (MDA-MB-436): 107%
- normalised response (BT-549): 121%
- normalised response (MDA-MB-453): 113%
- normalised response (HDQ-P1): 115%
- normalised response (BT-474): 103%
- normalised response (HCC1143): 132%
- normalised response (MDA-MB-468): 124%
- normalised response (MCF-10A): 112%
- normalised response (CAL-51): 104%
- normalised response (Hs578T): 126%
- normalised response (CAL-85-1): 98.6%
- normalised response (MFM-223): 91%
- normalised response (DU-4475): 103%

SMILES: O=C1CCC(N2C(=O)c3ccccc3C2=O)C(=O)N1 (stereo not drawn) [Thalidomide] (10000 nM)
- normalised response (HCC1599): 99.9%
- normalised response (CAL-148): 60.5%
- normalised response (MDA-MB-231): 115%
- normalised response (CAL-120): 104%
- normalised response (BT-549): 99.3%
- normalised response (MDA-MB-453): 93.2%
- normalised response (HCC1937): 97.8%
- normalised response (BT-474): 103%
- normalised response (HCC1143): 105%
- normalised response (MDA-MB-468): 186%
- normalised response (MCF-10A): 99%
- normalised response (CAL-51): 100%
- normalised response (Hs578T): 63.3%
- normalised response (CAL-85-1): 119%
- normalised response (MFM-223): 101%
- normalised response (DU-4475): 99.1%

SMILES: CN[C@@H]1C[C@H]2O[C@@](C)([C@@H]1OC)n1c3ccccc3c3c4c(c5c6ccccc6n2c5c31)C(=O)N[C@H]4O [UCN-01] (10000 nM)
- normalised response (HCC1599): 80.9%
- normalised response (CAL-148): 40.4%
- normalised response (MDA-MB-231): 1.94%
- normalised response (CAL-120): 18.1%
- normalised response (MDA-MB-436): 83.2%
- normalised response (BT-549): 43.8%
- normalised response (MDA-MB-453): 78.3%
- normalised response (HDQ-P1): 43.6%
- normalised response (HCC1937): 95.6%
- normalised response (BT-474): 24.5%
- normalised response (HCC1143): 72%
- normalised response (MDA-MB-468): 180%
- normalised response (MCF-10A): -57.5%
- normalised response (CAL-51): 33.5%
- normalised response (Hs578T): -27.6%
- normalised response (CAL-85-1): -33.4%
- normalised response (MFM-223): 78.1%
- normalised response (DU-4475): 76.1%

SMILES: Clc1ccc(Nc2nnc(Cc3ccncc3)c3ccccc23)cc1 [Vatalanib] (10000 nM)
- normalised response (HCC1599): 114%
- normalised response (CAL-148): 53.2%
- normalised response (MDA-MB-231): 129%
- normalised response (CAL-120): 102%
- normalised response (MDA-MB-436): 107%
- normalised response (BT-549): 118%
- normalised response (MDA-MB-453): 105%
- normalised response (HDQ-P1): 114%
- normalised response (HCC1937): 123%
- normalised response (BT-474): 102%
- normalised response (HCC1143): 125%
- normalised response (MDA-MB-468): 86.5%
- normalised response (MCF-10A): 55.9%
- normalised response (CAL-51): 109%
- normalised response (Hs578T): 78.7%
- normalised response (CAL-85-1): 76.8%
- normalised response (MFM-223): 97.1%
- normalised response (DU-4475): 107%

SMILES: Oc1nc(-c2ccc(C(F)(F)F)cc2)nc2c1CSCC2 [XAV-939] (10000 nM)
- normalised response (HCC1599): 103%
- normalised response (CAL-148): 101%
- normalised response (MDA-MB-231): 101%
- normalised response (CAL-120): 93.8%
- normalised response (MDA-MB-436): 95.5%
- normalised response (BT-549): 104%
- normalised response (MDA-MB-453): 94.1%
- normalised response (HDQ-P1): 71.7%
- normalised response (HCC1937): 93.2%
- normalised response (BT-474): 103%
- normalised response (HCC1143): 103%
- normalised response (MDA-MB-468): 115%
- normalised response (MCF-10A): 103%
- normalised response (CAL-51): 79.7%
- normalised response (Hs578T): 65.4%
- normalised response (CAL-85-1): 105%
- normalised response (MFM-223): 101%
- normalised response (DU-4475): 103%
